# In ChEMBL document CHEMBL3885861, “Open TG-GATES”:
# Species: Rattus norvegicus
# Experiment: Open TG-GATES - Regimen: Daily Repeat
# Type: toxicity, organism-based, Sprague-Dawley
# Parameters: regimen Daily Repeat, gender Male, age 6 weeks
# Details: in vivo, po, 400 mg/kg, […], route gavage, dose level High; for KIDNEY_L / KIDNEY_R / KIDNEY_TOTAL: tissue Kidney; for LIVER: tissue Liver; for A/G / ALP / ALT / AST / BUN / CRE / Ca / Cl / DBIL / GLC / IP / K / LDH / Na / PL / RALB / TBIL / TC / TG / TP / gamma-GTP: tissue Plasma
compound,measurement,setting,value
COc1ccc(Cc2nccc3cc(OC)c(OC)cc23)cc1OC [PAPAVERINE],Lym,"tissue Blood, time 28 day",71.8%
same,MCH,"tissue Blood, time 28 day",18.6 pg
same,MCHC,"tissue Blood, time 28 day",33%
same,MCV,"tissue Blood, time 28 day",56.6 fL
same,Mono,"tissue Blood, time 28 day",2.2%
same,Neu,"tissue Blood, time 28 day",23.8%
same,PT,"tissue Blood, time 28 day",15.9 s
same,Plat,"tissue Blood, time 28 day",109.9 x10_4/uL
same,RBC,"tissue Blood, time 28 day",772.5 x10_4/ul
same,Ret,"tissue Blood, time 28 day",2.6%
same,WBC,"tissue Blood, time 28 day",94.3 x10_2/uL
same,KIDNEY_L,time 7 day,1.2 g
same,KIDNEY_R,time 7 day,1.2 g
same,KIDNEY_TOTAL,time 7 day,2.3 g
same,KIDNEY_L,time 14 day,1.4 g
same,KIDNEY_R,time 14 day,1.4 g
same,KIDNEY_TOTAL,time 14 day,2.7 g
same,KIDNEY_L,time 28 day,1.5 g
same,KIDNEY_R,time 28 day,1.5 g
same,KIDNEY_TOTAL,time 28 day,2.9 g
same,LIVER,time 7 day,13.4 g
same,LIVER,time 14 day,14.4 g
same,LIVER,time 28 day,16.5 g
same,A/G,time 7 day,1.2
same,ALP,time 7 day,1249.6 IU/L
same,ALT,time 7 day,42.6 IU/L
same,AST,time 7 day,68 IU/L
same,BUN,time 7 day,18 mg/dL
same,CRE,time 7 day,0.2 mg/dL
same,Ca,time 7 day,10.9 mg/dL
same,Cl,time 7 day,107 meq/L
same,DBIL,time 7 day,0 mg/dL
same,GLC,time 7 day,191.8 mg/dL
same,IP,time 7 day,7.2 mg/dL
same,K,time 7 day,4.2 meq/L
same,LDH,time 7 day,164 IU/L
same,Na,time 7 day,142 meq/L
same,PL,time 7 day,149.4 mg/dL
same,RALB,time 7 day,3.1 g/dL
same,TBIL,time 7 day,0 mg/dL
same,TC,time 7 day,79.4 mg/dL
same,TG,time 7 day,91 mg/dL
same,TP,time 7 day,5.8 g/dL
same,gamma-GTP,time 7 day,2 IU/L
same,A/G,time 14 day,1.1
same,ALP,time 14 day,1494.6 IU/L
same,ALT,time 14 day,46.4 IU/L
same,AST,time 14 day,71 IU/L
same,BUN,time 14 day,17 mg/dL
same,CRE,time 14 day,0.2 mg/dL
same,Ca,time 14 day,10.5 mg/dL
same,Cl,time 14 day,106.8 meq/L
same,DBIL,time 14 day,0 mg/dL
same,GLC,time 14 day,183 mg/dL
same,IP,time 14 day,7.5 mg/dL
same,K,time 14 day,4.1 meq/L
same,LDH,time 14 day,142.6 IU/L
same,Na,time 14 day,142.8 meq/L
same,PL,time 14 day,143.8 mg/dL
same,RALB,time 14 day,3.1 g/dL
same,TBIL,time 14 day,0.02 mg/dL
same,TC,time 14 day,73.6 mg/dL
same,TG,time 14 day,81.8 mg/dL
same,TP,time 14 day,5.8 g/dL
same,gamma-GTP,time 14 day,2.4 IU/L
same,A/G,time 28 day,1.1
same,ALP,time 28 day,1162 IU/L
same,ALT,time 28 day,47 IU/L
same,AST,time 28 day,69.5 IU/L
same,BUN,time 28 day,19.8 mg/dL
same,CRE,time 28 day,0.2 mg/dL
same,Ca,time 28 day,10.3 mg/dL
same,Cl,time 28 day,106.2 meq/L
same,DBIL,time 28 day,0 mg/dL
same,GLC,time 28 day,182 mg/dL
same,IP,time 28 day,6.6 mg/dL
same,K,time 28 day,4 meq/L
same,LDH,time 28 day,141 IU/L
same,Na,time 28 day,142.5 meq/L
same,PL,time 28 day,146.2 mg/dL
same,RALB,time 28 day,3.2 g/dL
same,TBIL,time 28 day,0.0075 mg/dL
same,TC,time 28 day,82.2 mg/dL
same,TG,time 28 day,86 mg/dL
same,TP,time 28 day,6.1 g/dL
same,gamma-GTP,time 28 day,2.2 IU/L
